Laboratory results taken from PubChem BioAssay (NCI).
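Assay format: 96-well plates, 48-hour exposure. At the GI50, growth is halved. TGI is the concentration that stops growth completely.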

Columns and labels:
Assay in all cases: growth of human tumour cells (NCI), 48 h
MDA-MB-231 breast = test system: MDA-MB-231 breast
BT-549 breast = test system: BT-549 breast
RXF 393 renal = test system: RXF 393 renal
ACHN renal = test system: ACHN renal
U251 CNS = test system: U251 CNS
NCI-H23 lung = test system: NCI-H23 lung
HOP-92 NSCLC = test system: HOP-92 NSCLC
TK-10 renal = test system: TK-10 renal
HCT-15 colon = test system: HCT-15 colon
SNB-75 CNS = test system: SNB-75 CNS
SF-295 CNS = test system: SF-295 CNS
OVCAR-4 ovarian = test system: OVCAR-4 ovarian
SNB-19 CNS = test system: SNB-19 CNS
MALME-3M melanoma = test system: MALME-3M melanoma
CAKI-1 renal = test system: CAKI-1 renal
SK-OV-3 ovarian = test system: SK-OV-3 ovarian
NCI/ADR-RES ovarian = test system: NCI/ADR-RES ovarian
LOX IMVI melanoma = test system: LOX IMVI melanoma
SF-539 CNS = test system: SF-539 CNS
EKVX NSCLC = test system: EKVX NSCLC
HOP-62 NSCLC = test system: HOP-62 NSCLC
UACC-62 melanoma = test system: UACC-62 melanoma
HT29 colon = test system: HT29 colon
A498 renal = test system: A498 renal
SK-MEL-5 melanoma = test system: SK-MEL-5 melanoma
SK-MEL-28 melanoma = test system: SK-MEL-28 melanoma
NCI-H226 lung = test system: NCI-H226 lung
CCRF-CEM leukemia = test system: CCRF-CEM leukemia
SN12C renal = test system: SN12C renal
OVCAR-5 ovarian = test system: OVCAR-5 ovarian
PC-3 prostate = test system: PC-3 prostate
SF-268 CNS = test system: SF-268 CNS
NCI-H460 lung = test system: NCI-H460 lung
HS 578T breast = test system: HS 578T breast
DU-145 prostate = test system: DU-145 prostate
RPMI-8226 leukemia = test system: RPMI-8226 leukemia
SW-620 colon = test system: SW-620 colon
A549 NSCLC = test system: A549 NSCLC
OVCAR-8 ovarian = test system: OVCAR-8 ovarian
786-0 renal = test system: 786-0 renal
M14 melanoma = test system: M14 melanoma
MCF7 breast = test system: MCF7 breast
UO-31 renal = test system: UO-31 renal
SK-MEL-2 melanoma = test system: SK-MEL-2 melanoma
MDA-MB-435 = test system: MDA-MB-435
HCC-2998 colon = test system: HCC-2998 colon
HCT-116 colon = test system: HCT-116 colon
MOLT-4 leukemia = test system: MOLT-4 leukemia
UACC-257 melanoma = test system: UACC-257 melanoma
T-47D breast = test system: T-47D breast
NCI-H522 lung = test system: NCI-H522 lung
SR leukemia = test system: SR leukemia
K-562 leukemia = test system: K-562 leukemia
COLO 205 colon = test system: COLO 205 colon

COc1cc(-c2nc3ccc(C)cc3[nH]2)ccc1OCC(=O)N=Nc1c(O)[nH]c2ccc(Cl)cc12
GI50 (MDA-MB-231 breast): 0.438 µM
TGI (MDA-MB-231 breast): 1.67 µM
GI50 (BT-549 breast): 2.97 µM
TGI (BT-549 breast): > 100 µM
GI50 (RXF 393 renal): 1.59 µM
TGI (RXF 393 renal): 3.04 µM
GI50 (ACHN renal): 3.64 µM
TGI (ACHN renal): > 100 µM
GI50 (U251 CNS): 0.418 µM
TGI (U251 CNS): 1.66 µM
GI50 (NCI-H23 lung): 2.06 µM
TGI (NCI-H23 lung): 6.18 µM
GI50 (HOP-92 NSCLC): 1.91 µM
TGI (HOP-92 NSCLC): 7.05 µM
GI50 (TK-10 renal): 3.48 µM
TGI (TK-10 renal): 9.5 µM
GI50 (HCT-15 colon): 2.13 µM
TGI (HCT-15 colon): > 100 µM
GI50 (SNB-75 CNS): 1.43 µM
TGI (SNB-75 CNS): 3.72 µM
GI50 (SF-295 CNS): 1.8 µM
TGI (SF-295 CNS): 3.36 µM
GI50 (OVCAR-4 ovarian): 2.24 µM
TGI (OVCAR-4 ovarian): 4.83 µM
GI50 (SNB-19 CNS): 1.91 µM
TGI (SNB-19 CNS): 5.57 µM
GI50 (MALME-3M melanoma): 1.64 µM
TGI (MALME-3M melanoma): 3.14 µM
GI50 (CAKI-1 renal): 1.43 µM
TGI (CAKI-1 renal): 2.93 µM
GI50 (SK-OV-3 ovarian): 3.44 µM
TGI (SK-OV-3 ovarian): > 100 µM
GI50 (NCI/ADR-RES ovarian): > 100 µM
TGI (NCI/ADR-RES ovarian): > 100 µM
GI50 (LOX IMVI melanoma): 0.289 µM
TGI (LOX IMVI melanoma): 1.01 µM
GI50 (SF-539 CNS): 1.63 µM
TGI (SF-539 CNS): 3.05 µM
GI50 (EKVX NSCLC): 3.85 µM
TGI (EKVX NSCLC): > 100 µM
GI50 (HOP-62 NSCLC): 2.31 µM
TGI (HOP-62 NSCLC): 7.02 µM

N#Cc1c(-c2ccccc2)cc(-c2ccccc2)n(CC(=O)NO)c1=O
GI50 (UACC-62 melanoma): 2.25 µM
TGI (UACC-62 melanoma): 6.01 µM
GI50 (HT29 colon): 3.07 µM
TGI (HT29 colon): 12.2 µM
GI50 (MDA-MB-231 breast): 4.75 µM
TGI (MDA-MB-231 breast): 68 µM
GI50 (A498 renal): 2.17 µM
TGI (A498 renal): 7.99 µM
GI50 (SK-MEL-5 melanoma): 1.93 µM
TGI (SK-MEL-5 melanoma): 4.71 µM
GI50 (SK-MEL-28 melanoma): 6.7 µM
TGI (SK-MEL-28 melanoma): 77.4 µM
GI50 (NCI-H226 lung): 13.7 µM
TGI (NCI-H226 lung): 57.5 µM
GI50 (CCRF-CEM leukemia): 0.491 µM
TGI (CCRF-CEM leukemia): 3.07 µM
GI50 (SN12C renal): 4.27 µM
TGI (SN12C renal): > 100 µM
GI50 (OVCAR-5 ovarian): 11.1 µM
TGI (OVCAR-5 ovarian): > 100 µM
GI50 (PC-3 prostate): 2.25 µM
TGI (PC-3 prostate): 14 µM
GI50 (SF-268 CNS): 3.66 µM
TGI (SF-268 CNS): 94.3 µM
GI50 (NCI-H460 lung): 3.02 µM
TGI (NCI-H460 lung): > 100 µM
GI50 (HS 578T breast): 2 µM
TGI (HS 578T breast): 7.15 µM
GI50 (RXF 393 renal): 1.61 µM
TGI (RXF 393 renal): 5.92 µM
GI50 (DU-145 prostate): 6.37 µM
TGI (DU-145 prostate): > 100 µM
GI50 (RPMI-8226 leukemia): 1.35 µM
TGI (RPMI-8226 leukemia): 4.77 µM
GI50 (ACHN renal): 1.09 µM
TGI (ACHN renal): > 100 µM
GI50 (SW-620 colon): 8.87 µM
TGI (SW-620 colon): > 100 µM
GI50 (A549 NSCLC): 4.57 µM
TGI (A549 NSCLC): > 100 µM
GI50 (U251 CNS): 4.91 µM
TGI (U251 CNS): 86.3 µM
GI50 (NCI-H23 lung): 3.58 µM
TGI (NCI-H23 lung): 81.4 µM
GI50 (OVCAR-8 ovarian): 8.02 µM
TGI (OVCAR-8 ovarian): > 100 µM
GI50 (HOP-92 NSCLC): 2.15 µM
TGI (HOP-92 NSCLC): 8.17 µM
GI50 (786-0 renal): 5.59 µM
TGI (786-0 renal): 28 µM
GI50 (TK-10 renal): 5.92 µM
TGI (TK-10 renal): > 100 µM
GI50 (M14 melanoma): 4.16 µM
TGI (M14 melanoma): 19.1 µM
GI50 (MCF7 breast): 1.45 µM
TGI (MCF7 breast): 3.82 µM
GI50 (UO-31 renal): 1.84 µM
TGI (UO-31 renal): 9.75 µM
GI50 (SK-MEL-2 melanoma): 2.85 µM
TGI (SK-MEL-2 melanoma): 9.13 µM
GI50 (HCT-15 colon): 3.55 µM
TGI (HCT-15 colon): 28.8 µM
GI50 (MDA-MB-435): 3.03 µM
TGI (MDA-MB-435): > 100 µM
GI50 (SNB-75 CNS): 1.61 µM
TGI (SNB-75 CNS): 6.36 µM
GI50 (SF-295 CNS): 7.47 µM
TGI (SF-295 CNS): 33.8 µM
GI50 (OVCAR-4 ovarian): 3.53 µM
TGI (OVCAR-4 ovarian): > 100 µM
GI50 (HCC-2998 colon): 3.74 µM
TGI (HCC-2998 colon): 20.9 µM
GI50 (SNB-19 CNS): 7.09 µM
TGI (SNB-19 CNS): 73.3 µM
GI50 (MALME-3M melanoma): 3 µM
TGI (MALME-3M melanoma): 27.3 µM
GI50 (HCT-116 colon): 2.57 µM
TGI (HCT-116 colon): > 100 µM
GI50 (CAKI-1 renal): 3.4 µM
TGI (CAKI-1 renal): > 100 µM
GI50 (MOLT-4 leukemia): 1.7 µM
TGI (MOLT-4 leukemia): 4.92 µM
GI50 (SK-OV-3 ovarian): 6.24 µM
TGI (SK-OV-3 ovarian): 53.5 µM
GI50 (UACC-257 melanoma): 10.8 µM
TGI (UACC-257 melanoma): 37.4 µM
GI50 (T-47D breast): 1.41 µM
TGI (T-47D breast): 6.88 µM
GI50 (NCI-H522 lung): 0.427 µM
TGI (NCI-H522 lung): 1.82 µM
GI50 (SR leukemia): 0.593 µM
TGI (SR leukemia): 4.48 µM
GI50 (NCI/ADR-RES ovarian): 3.41 µM
TGI (NCI/ADR-RES ovarian): > 100 µM
GI50 (LOX IMVI melanoma): 0.176 µM
TGI (LOX IMVI melanoma): 0.333 µM
GI50 (SF-539 CNS): 3.83 µM
TGI (SF-539 CNS): 25.7 µM
GI50 (K-562 leukemia): 1.8 µM
TGI (K-562 leukemia): 4.67 µM
GI50 (EKVX NSCLC): 3.45 µM
TGI (EKVX NSCLC): 97 µM
GI50 (HOP-62 NSCLC): 6.99 µM
TGI (HOP-62 NSCLC): 58.3 µM
GI50 (COLO 205 colon): 5.62 µM
TGI (COLO 205 colon): 72.3 µM
